According to ChEMBL document CHEMBL1140062, “Inactivation of NF-kappaB components by covalent binding of (-)-dehydroxymethylepoxyquinomicin to specific cysteine residues” (J Med Chem, 2008):
The source made the active and inactive calls. No cut-off for these calls is given here.

How the values were obtained:
[1] = biological target: Transcription factor p65 (Homo sapiens) (UniProt Q04206); test: Inhibition of DNA binding activity of full-length recombinant NF-kappaB p65 Rel subunit at 10 uM by EMSA
Transcription factor p65 (Homo sapiens), sequence (Q04206 whole entry): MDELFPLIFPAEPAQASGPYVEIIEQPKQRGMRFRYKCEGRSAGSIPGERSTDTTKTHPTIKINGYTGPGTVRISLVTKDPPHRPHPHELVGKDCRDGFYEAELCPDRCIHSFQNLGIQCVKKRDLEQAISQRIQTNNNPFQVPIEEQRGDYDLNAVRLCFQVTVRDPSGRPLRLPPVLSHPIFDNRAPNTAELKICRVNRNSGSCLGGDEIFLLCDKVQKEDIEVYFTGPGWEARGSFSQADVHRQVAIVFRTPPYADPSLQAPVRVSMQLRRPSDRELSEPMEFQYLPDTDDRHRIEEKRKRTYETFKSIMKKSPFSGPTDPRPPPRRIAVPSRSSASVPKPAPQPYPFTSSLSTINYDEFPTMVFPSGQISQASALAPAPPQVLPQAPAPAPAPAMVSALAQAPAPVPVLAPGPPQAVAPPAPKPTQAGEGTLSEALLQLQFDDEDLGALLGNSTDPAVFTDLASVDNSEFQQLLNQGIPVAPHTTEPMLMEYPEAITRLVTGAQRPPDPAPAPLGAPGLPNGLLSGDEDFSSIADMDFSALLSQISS

[2] = Inhibition of DNA binding activity of NF-kappaB p65 (1-325) Rel subunit at 20 uM by EMSA
[3] = Binding affinity to NF-kappaB p65 (1-325) Rel subunit at 100 uM by surface plasmon resonance analysis
[4] = system: Transcription factor p65 (Homo sapiens), Q04206 [C38S]; test: Inhibition of DNA binding activity of NF-kappaB p65 (1-325) C38S mutant by EMSA
Transcription factor p65 (Homo sapiens), Q04206 [C38S], sequence (Q04206 whole entry C38S): as the sequence (Q04206 whole entry) above, with C38S counted along it

[5] = system: Transcription factor p65 (Homo sapiens), Q04206 [C120S]; test: Inhibition of DNA binding activity of NF-kappaB p65 (1-325) C120S mutant by EMSA
Transcription factor p65 (Homo sapiens), Q04206 [C120S], sequence (Q04206 whole entry C120S): as the sequence (Q04206 whole entry) above, with C120S counted along it

[6] = system: Transcription factor p65 (Homo sapiens), Q04206 [C38S]; test: Inhibition of DNA binding activity of NF-kappaB p65 (1-325) C38S mutant by MALDI-TOF MS analysis
[7] = system: Transcription factor p65 (Homo sapiens), Q04206 [C120S]; test: Inhibition of DNA binding activity of NF-kappaB p65 (1-325) C120S mutant by MALDI-TOF MS analysis
[8] = biological target: T1, Nuclear factor NF-kappa-B p105 subunit (Homo sapiens) (UniProt P19838); test: Inhibition of DNA binding activity of wild type NF-kappaB p50
T1 sequence (whole entry): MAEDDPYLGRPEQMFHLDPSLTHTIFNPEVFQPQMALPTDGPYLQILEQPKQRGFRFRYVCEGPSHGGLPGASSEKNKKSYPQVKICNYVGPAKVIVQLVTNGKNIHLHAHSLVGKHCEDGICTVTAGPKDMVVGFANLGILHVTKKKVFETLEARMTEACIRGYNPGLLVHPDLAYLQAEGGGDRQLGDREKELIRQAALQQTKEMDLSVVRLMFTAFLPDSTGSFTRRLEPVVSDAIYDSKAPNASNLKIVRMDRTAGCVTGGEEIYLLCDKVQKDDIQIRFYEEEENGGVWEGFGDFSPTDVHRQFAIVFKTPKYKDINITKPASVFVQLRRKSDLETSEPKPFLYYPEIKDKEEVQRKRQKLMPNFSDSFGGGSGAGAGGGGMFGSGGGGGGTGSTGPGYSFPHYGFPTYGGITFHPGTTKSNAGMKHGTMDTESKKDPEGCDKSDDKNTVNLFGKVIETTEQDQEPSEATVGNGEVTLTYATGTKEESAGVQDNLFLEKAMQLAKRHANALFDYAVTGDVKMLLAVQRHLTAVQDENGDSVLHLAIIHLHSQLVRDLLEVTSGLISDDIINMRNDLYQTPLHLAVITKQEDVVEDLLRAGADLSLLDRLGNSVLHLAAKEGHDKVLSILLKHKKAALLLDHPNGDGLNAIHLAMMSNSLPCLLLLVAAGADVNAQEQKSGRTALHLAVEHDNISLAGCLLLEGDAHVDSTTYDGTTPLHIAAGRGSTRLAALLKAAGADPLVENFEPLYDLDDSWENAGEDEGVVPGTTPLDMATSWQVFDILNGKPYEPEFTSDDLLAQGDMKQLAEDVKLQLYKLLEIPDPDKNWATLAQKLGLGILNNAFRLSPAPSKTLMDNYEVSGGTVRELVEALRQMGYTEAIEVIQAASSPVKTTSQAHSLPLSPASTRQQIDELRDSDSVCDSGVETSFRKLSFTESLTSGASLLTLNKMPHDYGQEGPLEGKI

[9] = Inhibition of DNA binding activity of NF-kappaB p50 C62S mutant
[10] = biological target: T1, Nuclear factor NF-kappa-B p105 subunit (Homo sapiens); test: Inhibition of DNA binding activity of wild type NF-kappaB p50 by MALDI-TOF MS analysis
[11] = Inhibition of DNA binding activity of NF-kappaB p50 C62S mutant by MALDI-TOF MS analysis
[12] = Inhibition of DNA binding activity of wild type NF-kappaB cRel (1-307)
[13] = system: T2, Proto-oncogene c-Rel (Homo sapiens), Q04864 [C27S]; test: Inhibition of DNA binding activity of NF-kappaB cRel (1-307) C27S mutant
T2 sequence (whole entry): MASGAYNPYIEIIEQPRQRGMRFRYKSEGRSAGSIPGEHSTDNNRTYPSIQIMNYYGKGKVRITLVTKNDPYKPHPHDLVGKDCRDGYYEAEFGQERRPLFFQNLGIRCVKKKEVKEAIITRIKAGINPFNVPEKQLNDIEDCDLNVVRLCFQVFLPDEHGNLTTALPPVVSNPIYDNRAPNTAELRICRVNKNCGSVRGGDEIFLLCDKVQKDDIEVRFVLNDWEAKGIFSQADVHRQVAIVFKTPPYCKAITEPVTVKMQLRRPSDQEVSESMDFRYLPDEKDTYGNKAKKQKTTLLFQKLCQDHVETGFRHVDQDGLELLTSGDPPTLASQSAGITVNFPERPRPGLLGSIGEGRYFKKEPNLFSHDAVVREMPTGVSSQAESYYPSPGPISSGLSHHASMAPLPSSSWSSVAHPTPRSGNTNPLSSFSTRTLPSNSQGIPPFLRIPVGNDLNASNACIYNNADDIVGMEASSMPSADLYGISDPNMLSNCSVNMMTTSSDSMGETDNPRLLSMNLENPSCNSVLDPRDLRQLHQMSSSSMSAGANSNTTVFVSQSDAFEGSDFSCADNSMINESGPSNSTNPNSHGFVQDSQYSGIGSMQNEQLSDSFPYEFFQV

[14] = Inhibition of DNA binding activity of wild type NF-kappaB cRel (1-307) by MALDI-TOF MS analysis
[15] = system: T2, Proto-oncogene c-Rel (Homo sapiens), Q04864 [C27S]; test: Inhibition of DNA binding activity of NF-kappaB cRel (1-307) C27S mutant by MALDI-TOF MS analysis
[16] = biological target: T3, Nuclear factor NF-kappa-B p100 subunit (Homo sapiens) (UniProt Q00653); test: Inhibition of DNA binding activity of NF-kappaB p52
T3 sequence (whole entry): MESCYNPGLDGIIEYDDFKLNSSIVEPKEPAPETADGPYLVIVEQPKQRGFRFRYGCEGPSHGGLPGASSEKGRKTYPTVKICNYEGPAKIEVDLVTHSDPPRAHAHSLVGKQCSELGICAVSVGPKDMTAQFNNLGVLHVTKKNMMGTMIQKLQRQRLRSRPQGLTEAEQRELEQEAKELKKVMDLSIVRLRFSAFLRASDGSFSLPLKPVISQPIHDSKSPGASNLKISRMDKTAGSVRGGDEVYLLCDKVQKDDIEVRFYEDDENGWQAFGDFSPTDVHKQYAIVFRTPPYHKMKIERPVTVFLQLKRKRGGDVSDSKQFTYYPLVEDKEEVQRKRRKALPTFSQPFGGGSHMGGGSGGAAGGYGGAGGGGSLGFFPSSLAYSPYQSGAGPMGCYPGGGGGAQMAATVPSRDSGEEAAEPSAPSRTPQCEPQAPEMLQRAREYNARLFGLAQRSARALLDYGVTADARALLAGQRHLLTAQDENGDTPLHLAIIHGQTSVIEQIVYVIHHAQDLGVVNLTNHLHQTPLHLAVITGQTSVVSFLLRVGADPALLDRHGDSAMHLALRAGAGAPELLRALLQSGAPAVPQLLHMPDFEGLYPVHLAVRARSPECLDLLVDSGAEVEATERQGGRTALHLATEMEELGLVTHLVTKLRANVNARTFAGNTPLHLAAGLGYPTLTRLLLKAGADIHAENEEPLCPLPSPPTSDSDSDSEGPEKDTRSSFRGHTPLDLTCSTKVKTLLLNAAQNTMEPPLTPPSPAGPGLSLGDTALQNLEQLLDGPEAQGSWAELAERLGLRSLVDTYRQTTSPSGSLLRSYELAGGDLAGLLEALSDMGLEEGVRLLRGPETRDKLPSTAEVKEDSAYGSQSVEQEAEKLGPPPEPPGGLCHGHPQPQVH

[17] = biological target: Transcription factor p65 (Homo sapiens) (UniProt Q04206); test: Inhibition of TNF-alpha-stimulated DNA binding activity of wild type NF-kappaB p65 expressed in HeLa cells at 10 ug/mL by EMSA; type: cell-based
[18] = system: Transcription factor p65 (Homo sapiens), Q04206 [C38S]; test: Inhibition of TNF-alpha-stimulated DNA binding activity of NF-kappaB p65 C38S mutant expressed in HeLa cells at 10 ug/mL hrs by EMSA; type: cell-based
HeLa [19] = test: Decrease of TNF-alpha-stimulated wild type NF-kappaB p65 level in human HeLa cell nucleus at 10 ug/mL by Western blot analysis; type: functional, cell-based
HeLa [20] = test: Decrease of TNF-alpha-stimulated NF-kappaB p65 C38S mutant level in human HeLa cell nucleus at 10 ug/mL by Western blot analysis; type: functional, cell-based
[21] = Inhibition of DNA binding activity of NF-kappaB p50 C144S mutant by MALDI-TOF MS analysis
HeLa [22] = test: Decrease of TNF-alpha-stimulated endogenous NF-kappaB p65 level in human HeLa cell nucleus at 10 ug/mL by Western blot analysis; type: functional, cell-based
[23] = system: Transcription factor p65 (Homo sapiens), Q04206 [C38S]; test: Inhibition of DNA binding activity of full-length recombinant NF-kappaB p65 Rel subunit C38S mutant at 10 uM by EMSA
Albumin = Albumin (Bos taurus, UniProt P02769); test: Binding affinity to bovine serum albumin; type: ADME; conditions: cattle, isolated protein
Albumin, sequence (P02769 whole entry): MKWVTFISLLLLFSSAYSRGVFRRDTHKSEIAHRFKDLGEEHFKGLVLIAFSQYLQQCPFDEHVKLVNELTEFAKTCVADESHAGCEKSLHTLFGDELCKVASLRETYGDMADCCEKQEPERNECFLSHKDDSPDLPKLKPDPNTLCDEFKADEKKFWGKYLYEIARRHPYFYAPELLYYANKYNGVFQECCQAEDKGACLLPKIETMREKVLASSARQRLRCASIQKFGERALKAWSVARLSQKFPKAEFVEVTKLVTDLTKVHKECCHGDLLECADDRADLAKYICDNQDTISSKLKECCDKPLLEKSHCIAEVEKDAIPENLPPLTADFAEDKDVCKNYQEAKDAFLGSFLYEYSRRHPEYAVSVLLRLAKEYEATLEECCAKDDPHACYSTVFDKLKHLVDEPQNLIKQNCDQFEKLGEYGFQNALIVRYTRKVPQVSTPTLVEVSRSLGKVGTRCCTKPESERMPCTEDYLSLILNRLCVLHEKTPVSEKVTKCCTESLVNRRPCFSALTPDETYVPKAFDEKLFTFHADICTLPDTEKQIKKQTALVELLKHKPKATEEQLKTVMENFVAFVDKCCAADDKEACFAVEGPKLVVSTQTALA

Activity [1]: inactive
Activity [2]: Active
Activity [3]: Active
Activity [4]: inactive
Activity [5]: Active
Activity [6]: inactive
Activity [7]: Active
Activity [8]: Active
Activity [9]: inactive
Activity [10]: Active
Activity [11]: inactive
Activity [12]: Active
Activity [13]: inactive
Activity [14]: Active
Activity [15]: inactive
Activity [16]: inactive
Activity [17]: Active
Activity [18]: inactive
Activity [21]: inactive
Activity [23]: inactive
Activity (Albumin): Not Active
SMILES: O=C(NC1=CC(=O)[C@H]2O[C@H]2[C@H]1O)c1ccccc1O [DEHYDROXYMETHYLEPOXYQUINOMICIN]
Activity (HeLa [19]): Active
Activity (HeLa [20]): inactive
Activity (HeLa [22]): Active
